Experimental data from paper PMC10167629, “Computer-aided design of a cyclic di-AMP synthesizing enzyme CdaA inhibitor” (microLife, 2023).

Assays:
Lm CdaA (∆100CdaA) [1] = molecular target: T1, Lm CdaA (∆100CdaA) (Listeria monocytogenes, UniProt Q8Y5E4); test: crystal structure by soaking; assay type: binding; conditions: active site, chain A
T1 construct: gene dacA; DAC domain, lacks transmembrane domain and linker (first 100 residues deleted); N-terminal GST tag cut with PreScission protease; plasmid pGEXpBP33, E. coli BL21(DE3); residues to at least 268 mentioned (96-104 and 256-268 disordered); non-catalytic back-to-back dimer in crystal
T1 sequence (Q8Y5E4 101-273): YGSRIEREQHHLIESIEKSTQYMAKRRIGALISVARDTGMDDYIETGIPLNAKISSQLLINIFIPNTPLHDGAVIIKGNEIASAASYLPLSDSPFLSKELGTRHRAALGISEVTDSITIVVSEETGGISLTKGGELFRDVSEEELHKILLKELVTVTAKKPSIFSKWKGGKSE

Lm CdaA (∆100CdaA) [2] = molecular target: T1, Lm CdaA (∆100CdaA); test: ITC, […] binding model

Row | SMILES | crystal structure by soaking (Lm CdaA (∆100CdaA) [1]) | Kd (Lm CdaA (∆100CdaA) [2]) [µM]
1 | Nc1ncnc2c1ncn2[C@@H]1O[C@H](CO)[C@@H](O)[C@H]1O [adenosine] | we have determined crystal structures of CdaA complexes with adenine (Fig. 3B), adenosine (Fig. 3C) | –
2 | CC(=O)Nc1nc(C)c(-c2csc(N)n2)s1 [compound 7] | – | 16.3 ± 2.5
